Measurements as given in ChEMBL document CHEMBL6087465, “Design, Synthesis, and Antitumor Activity Evaluation of 2-Phenylthiazole-5-Carboxylic Acid Derivatives Targeting Transactivation Response RNA-Binding Protein 2” (J Med Chem, 2025).
Active and inactive are the calls of the source. No cut-off for these calls is given here.

Key:
SK-HEP1 [1] = assay: Antiproliferative activity against human SK-HEP1 cells cultured as 2D cells assessed as inhibition of cell growth at 10 uM incubated for 72 hrs by CCK-8 assay; type: functional, cell-based
HCCLM3 [2] = assay: Antiproliferative activity against human HCCLM3 cells cultured as 2D cells assessed as inhibition of cell growth at 10 uM incubated for 72 hrs by CCK-8 assay; type: functional, cell-based
SK-HEP1 [3] = assay: Antiproliferative activity against human SK-HEP1 cells cultured as 3D cells assessed as inhibition of cell growth at 10 uM incubated for 72 hrs by CellTiter-Lumi assay; type: functional, cell-based
SK-HEP1 [4] = assay: Inhibition of cell migration in human SK-HEP1 cells at 10 uM incubated for 24 hrs by wound healing assay; type: functional, cell-based
SK-HEP1 [5] = assay: Inhibition of cell migration in human SK-HEP1 cells at 10 uM incubated for 24 hrs by transwell assay; type: functional, cell-based
Homo sapiens = species on record: Homo sapiens; assay: Inhibition of recombinant human TRBP/recombinant human Dicer protein protein interaction at 25 uM by indirect-competition-ELISA
SK-HEP1 [6] = assay: Antiproliferative activity against TARBP2-knockout human SK-HEP1 cells cultured as 3D cells assessed as inhibition of cell growth at 25 uM incubated for 72 hrs by CellTiter-Lumi assay; type: functional, cell-based
HCCLM3 [7] = assay: Antiproliferative activity against TARBP2-knockout human HCCLM3 cells cultured as 3D cells assessed as inhibition of cell growth at 25 uM incubated for 72 hrs by CellTiter-Lumi assay; type: functional, cell-based
SK-HEP1 [8] = assay: Antiproliferative activity against human SK-HEP1 cells cultured as 3D cells assessed as inhibition of cell growth at 25 uM incubated for 72 hrs by CellTiter-Lumi assay; type: functional, cell-based
HCCLM3 [9] = assay: Antiproliferative activity against human HCCLM3 cells cultured as 3D cells assessed as inhibition of cell growth at 25 uM incubated for 72 hrs by CellTiter-Lumi assay; type: functional, cell-based
HCCLM3 [10] = assay: Inhibition of cell migration in human HCCLM3 cells incubated for 24 hrs by transwell assay; type: functional, cell-based
SK-HEP1 [11] = assay: Inhibition of cell migration in TARBP2-knockout human SK-HEP1 cells at 1 to 25 uM incubated for 24 hrs by transwell assay; type: functional, cell-based; settings: dose 1-25 µM
HCCLM3 [12] = assay: Inhibition of cell migration in TARBP2-knockout human HCCLM3 cells at 1 to 25 uM incubated for 24 hrs by transwell assay; type: functional, cell-based; settings: dose 1-25 µM
HCCLM3 [13] = assay: Antiproliferative activity against human HCCLM3 cells assessed as upregulation of SMAD7 expression incubated for 24 hrs by Western blotting analysis; type: functional, cell-based
HCCLM3 [14] = assay: Antiproliferative activity against human HCCLM3 cells assessed as downregulation of SMAD2 phosphorylation incubated for 24 hrs by Western blotting analysis; type: functional, cell-based
HCCLM3 [15] = assay: Antiproliferative activity against human HCCLM3 cells assessed as downregulation of SMAD3 phosphorylation incubated for 24 hrs by Western blotting analysis; type: functional, cell-based
[16] = Acute toxicity in Kunming mouse assessed as body weight loss at 100 mg/kg,ip administration measured after 14 days; type: organism-based; settings: in vivo, 336 h, time 14 day
[17] = Acute toxicity in Kunming mouse assessed as effect on AST level in liver at 100 mg/kg,ip administration measured after 14 days; type: organism-based; settings: in vivo, 336 h, time 14 day
[18] = Acute toxicity in Kunming mouse assessed as effect on ALB level in liver at 100 mg/kg,ip administration measured after 14 days; type: organism-based; settings: in vivo, 336 h, time 14 day
[19] = Acute toxicity in Kunming mouse assessed as effect on total bilirubin level in liver at 100 mg/kg,ip administration measured after 14 days; type: organism-based; settings: in vivo, 336 h, time 14 day
[20] = Acute toxicity in Kunming mouse assessed as effect on direct bilirubin level in liver at 100 mg/kg,ip administration measured after 14 days; type: organism-based; settings: in vivo, 336 h, time 14 day
[21] = Acute toxicity in Kunming mouse assessed as effect on urea level in kidney at 100 mg/kg,ip administration measured after 14 days; type: organism-based; settings: in vivo, 336 h, time 14 day
[22] = Acute toxicity in Kunming mouse assessed as effect on creatinine level in kidney at 100 mg/kg,ip administration measured after 14 days; type: organism-based; settings: in vivo, 336 h, time 14 day
[23] = Acute toxicity in Kunming mouse assessed as effect on creatine kinase level in heart at 100 mg/kg,ip administration measured after 14 days; type: organism-based; settings: in vivo, 336 h, time 14 day
[24] = Acute toxicity in Kunming mouse assessed as effect on lactate dehydrogenase level in heart at 100 mg/kg,ip administration measured after 14 days; type: organism-based; settings: in vivo, 336 h, time 14 day
[25] = Acute toxicity in Kunming mouse assessed as pathological change in heart at 100 mg/kg,ip administration measured after 14 days by hematoxylin and eosin staining based microscopic analysis; type: organism-based; settings: in vivo, 336 h, time 14 day
[26] = Acute toxicity in Kunming mouse assessed as pathological change in spleen at 100 mg/kg,ip administration measured after 14 days by hematoxylin and eosin staining based microscopic analysis; type: organism-based; settings: in vivo, 336 h, time 14 day
[27] = Acute toxicity in Kunming mouse assessed as pathological change in lung at 100 mg/kg,ip administration measured after 14 days by hematoxylin and eosin staining based microscopic analysis; type: organism-based; settings: in vivo, 336 h, time 14 day
[28] = Acute toxicity in Kunming mouse assessed as pathological change in kidney at 100 mg/kg,ip administration measured after 14 days by hematoxylin and eosin staining based microscopic analysis; type: organism-based; settings: in vivo, 336 h, time 14 day
[29] = Half life in Sprague-Dawley rat at 25 mg/kg,po administration by LC-MS/MS analysis; type: ADME, organism-based; settings: in vivo
[30] = Tmax in Sprague-Dawley rat at 10 mg/kg,iv administration by LC-MS/MS analysis; type: ADME, organism-based; settings: in vivo
[31] = Tmax in Sprague-Dawley rat at 25 mg/kg,po administration by LC-MS/MS analysis; type: ADME, organism-based; settings: in vivo
[32] = Cmax in Sprague-Dawley rat at 10 mg/kg,iv administration by LC-MS/MS analysis; type: ADME, organism-based; settings: in vivo
[33] = Cmax in Sprague-Dawley rat at 25 mg/kg,po administration by LC-MS/MS analysis; type: ADME, organism-based; settings: in vivo
[34] = AUC (0 to t) in Sprague-Dawley rat at 10 mg/kg,iv administration by LC-MS/MS analysis; type: ADME, organism-based; settings: in vivo
[35] = AUC (0 to t) in Sprague-Dawley rat at 25 mg/kg,po administration by LC-MS/MS analysis; type: ADME, organism-based; settings: in vivo
[36] = AUC (0 to infinity) in Sprague-Dawley rat at 10 mg/kg,iv administration by LC-MS/MS analysis; type: ADME, organism-based; settings: in vivo
[37] = AUC (0 to infinity) in Sprague-Dawley rat at 25 mg/kg,po administration by LC-MS/MS analysis; type: ADME, organism-based; settings: in vivo
[38] = MRT (0 to t) in Sprague-Dawley rat at 10 mg/kg,iv administration by LC-MS/MS analysis; type: ADME, organism-based; settings: in vivo
[39] = MRT (0 to t) in Sprague-Dawley rat at 25 mg/kg,po administration by LC-MS/MS analysis; type: ADME, organism-based; settings: in vivo
[40] = MRT (0 to infinity) in Sprague-Dawley rat at 10 mg/kg,iv administration by LC-MS/MS analysis; type: ADME, organism-based; settings: in vivo
[41] = MRT (0 to infinity) in Sprague-Dawley rat at 25 mg/kg,po administration by LC-MS/MS analysis; type: ADME, organism-based; settings: in vivo
[42] = Volume of distribution at steady state in Sprague-Dawley rat at 10 mg/kg,iv administration by LC-MS/MS analysis; type: ADME, organism-based; settings: in vivo, read-out: Vdss

CCOc1ccc(-c2nc(C)c(C(=O)O)s2)cc1
Activity (SK-HEP1 [1]): inactive | Activity (HCCLM3 [2]): inactive | Activity (SK-HEP1 [3]): Active | inhibition (SK-HEP1 [4]): Active | inhibition (SK-HEP1 [5]): Active | inhibition (Homo sapiens): Active | Activity (SK-HEP1 [6]): inactive | Activity (HCCLM3 [7]): inactive | Activity (SK-HEP1 [8]): Active | Activity (HCCLM3 [9]): Active | inhibition (HCCLM3 [10]): Dose-dependent-effect | inhibition (SK-HEP1 [11]): inactive | inhibition (HCCLM3 [12]): inactive | Activity (HCCLM3 [13]): Dose-dependent-effect | Activity (HCCLM3 [14]): Dose-dependent-effect | Activity (HCCLM3 [15]): Dose-dependent-effect | Activity [16]: Non-toxic | Activity [17]: Non-toxic | Activity [18]: Non-toxic | Activity [19]: Non-toxic | Activity [20]: Non-toxic | Activity [21]: Non-toxic | Activity [22]: Non-toxic | Activity [23]: Non-toxic | Activity [24]: Non-toxic | Activity [25]: Non-toxic | Activity [26]: Non-toxic | Activity [27]: Non-toxic | Activity [28]: Non-toxic | half-life [29]: 162 min | Tmax [30]: 6 min | Tmax [31]: 18 min | Cmax [32]: 34900 ng/mL | Cmax [33]: 2210 ng/mL | AUC(0-t) [34]: 9730 ng·h/mL | AUC(0-t) [35]: 2670 ng·h/mL | AUC(0-inf) [36]: 9740 ng·h/mL | AUC(0-inf) [37]: 3080 ng·h/mL | MRT last [38]: 6 min | MRT last [39]: 2.6 h | MRT inf [40]: 0.2 h | MRT inf [41]: 3.9 h | Vd [42]: 0.161 L/kg

Cc1nc(-c2ccc(N3CCOCC3)cc2)sc1C(=O)O
Activity (SK-HEP1 [1]): inactive | Activity (HCCLM3 [2]): inactive | Activity (SK-HEP1 [3]): Active | inhibition (SK-HEP1 [4]): Active | inhibition (SK-HEP1 [5]): Active | inhibition (Homo sapiens): Active | Activity (SK-HEP1 [6]): inactive | Activity (HCCLM3 [7]): inactive | Activity (SK-HEP1 [8]): Active | Activity (HCCLM3 [9]): Active | inhibition (HCCLM3 [10]): Dose-dependent-effect | inhibition (SK-HEP1 [11]): inactive | inhibition (HCCLM3 [12]): inactive | Activity (HCCLM3 [13]): Dose-dependent-effect | Activity (HCCLM3 [14]): Dose-dependent-effect | Activity (HCCLM3 [15]): Dose-dependent-effect | Activity [16]: Non-toxic | Activity [17]: Non-toxic | Activity [18]: Non-toxic | Activity [19]: Non-toxic | Activity [20]: Non-toxic | Activity [21]: Non-toxic | Activity [22]: Non-toxic | Activity [23]: Non-toxic | Activity [24]: Non-toxic | Activity [25]: Non-toxic | Activity [26]: Non-toxic | Activity [27]: Non-toxic | Activity [28]: Non-toxic | half-life [29]: 197 min | Tmax [30]: 4.8 min | Tmax [31]: 25.2 min | Cmax [32]: 45900 ng/mL | Cmax [33]: 19800 ng/mL | AUC(0-t) [34]: 37400 ng·h/mL | AUC(0-t) [35]: 50400 ng·h/mL | AUC(0-inf) [36]: 37500 ng·h/mL | AUC(0-inf) [37]: 50600 ng·h/mL | MRT last [38]: 102 min | MRT last [39]: 3.5 h | MRT inf [40]: 1.8 h | MRT inf [41]: 3.7 h | Vd [42]: 0.496 L/kg
